Data reported in ChEMBL document CHEMBL2177076, “Rational design of potent non-nucleoside inhibitors of HIV-1 reverse transcriptase” (J Med Chem, 2012).
Activity calls are given as the source filed them. The rule behind the calls is not given here.

Experiments:
[1] = tested on: Human immunodeficiency virus 1; experiment: Antiviral activity against NNRTI-resistant HIV1 harboring reverse transcriptase Y181C mutant infected in human MT4 cells assessed as inhibition of viral replication after 72 hrs by HeLa-CD4-LTR-beta-gal assay; assay type: functional, organism-based; settings: Human immunodeficiency virus 1, MT4, 72 h
[2] = tested on: Human immunodeficiency virus 1; experiment: Antiviral activity against HIV1 expressing wild type reverse transcriptase infected in human MT4 cells assessed as inhibition of viral replication after 72 hrs by HeLa-CD4-LTR-beta-gal assay; assay type: functional, organism-based; settings: Human immunodeficiency virus 1, MT4, 72 h
[3] = tested on: Human immunodeficiency virus 1; experiment: Antiviral activity against NNRTI-resistant HIV1 harboring reverse transcriptase K103N mutant infected in human MT4 cells assessed as inhibition of viral replication after 72 hrs by HeLa-CD4-LTR-beta-gal assay; assay type: functional, organism-based; settings: Human immunodeficiency virus 1, MT4, 72 h
[4] = tested on: Human immunodeficiency virus 1; experiment: Antiviral activity against NNRTI-resistant HIV1 harboring reverse transcriptase Y188L mutant infected in human MT4 cells assessed as inhibition of viral replication after 72 hrs by HeLa-CD4-LTR-beta-gal assay; assay type: functional, organism-based; settings: Human immunodeficiency virus 1, MT4, 72 h
[5] = Dissociation constant, pKa of the compound; assay type: physicochemical
[6] = tested on: Human immunodeficiency virus 1; experiment: Ratio of EC50 for HIV1 expressing wild type reverse transcriptase in presence of human serum albumin and human alpha-1 acid glycoprotein to EC50 for HIV1 expressing wild type reverse transcriptase; assay type: functional
[7] = tested on: Human immunodeficiency virus 1; experiment: Antiviral activity against NNRTI-resistant HIV1 harboring reverse transcriptase Y181I/V179F double mutant infected in human MT4 cells assessed as inhibition of viral replication after 72 hrs by HeLa-CD4-LTR-beta-gal assay; assay type: functional, organism-based
[8] = tested on: Human immunodeficiency virus 1; experiment: Selectivity ratio of EC50 for NNRTI-resistant HIV1 harboring reverse transcriptase Y181V mutant to EC50 for HIV1 expressing wild type reverse transcriptase; assay type: functional
[9] = tested on: Human immunodeficiency virus 1; experiment: Antiviral activity against NNRTI-resistant HIV1 harboring reverse transcriptase Y181C/F227C double mutant infected in human MT4 cells assessed as inhibition of viral replication after 72 hrs by HeLa-CD4-LTR-beta-gal assay; assay type: functional, organism-based
[10] = tested on: Human immunodeficiency virus 1; experiment: Antiviral activity against NNRTI-resistant HIV1 harboring reverse transcriptase Y181C/K103N double mutant infected in human MT4 cells assessed as inhibition of viral replication after 72 hrs by HeLa-CD4-LTR-beta-gal assay; assay type: functional, organism-based
[11] = tested on: Human immunodeficiency virus 1; experiment: Antiviral activity against NNRTI-resistant HIV1 harboring reverse transcriptase Y181C/V179F double mutant infected in human MT4 cells assessed as inhibition of viral replication after 72 hrs by HeLa-CD4-LTR-beta-gal assay; assay type: functional, organism-based
Rattus norvegicus = experiment: AUC (0 to infinity) in Sprague-Dawley rat at 5 mg/kg, po; assay type: ADME, organism-based, Plasma; parameters: time infinity, dose 5 mg/kg, route oral; settings: in vivo
[12] = Half life in dog at 1 mg/kg, iv; assay type: ADME, organism-based, Canis lupus familiaris; parameters: dose 1 mg/kg, route intravenous; settings: in vivo
[13] = Clearance in mouse at 1 mg/kg, iv; assay type: ADME, organism-based; parameters: dose 1 mg/kg, route intravenous; settings: in vivo
[14] = Volume of distribution at steady state in cynomolgus monkey at 1 mg/kg, iv; assay type: ADME, organism-based, Macaca fascicularis; parameters: dose 1 mg/kg, route intravenous; settings: in vivo, read-out: Vdss
[15] = Clearance in Sprague-Dawley rat at 1 mg/kg, iv; assay type: ADME, organism-based; parameters: dose 1 mg/kg, route intravenous; settings: in vivo
[16] = Clearance in cynomolgus monkey at 1 mg/kg, iv; assay type: ADME, organism-based, Macaca fascicularis; parameters: dose 1 mg/kg, route intravenous; settings: in vivo
[17] = Volume of distribution at steady state in mouse at 1 mg/kg, iv; assay type: ADME, organism-based; parameters: dose 1 mg/kg, route intravenous; settings: in vivo, read-out: Vdss
[18] = tested on: Human immunodeficiency virus 1; experiment: Antiviral activity against NNRTI-resistant HIV1 harboring reverse transcriptase Y181I mutant infected in human MT4 cells assessed as inhibition of viral replication after 72 hrs by HeLa-CD4-LTR-beta-gal assay; assay type: functional, organism-based
[19] = Half life in mouse at 1 mg/kg, iv; assay type: ADME, organism-based; parameters: dose 1 mg/kg, route intravenous; settings: in vivo
Mus musculus = experiment: AUC (0 to infinity) in mouse at 5 mg/kg, po; assay type: ADME, organism-based, Plasma; parameters: time infinity, dose 5 mg/kg, route oral; settings: in vivo
[20] = tested on: Human immunodeficiency virus 1; experiment: Selectivity ratio of EC50 for NNRTI-resistant HIV1 harboring reverse transcriptase Y188L mutant to EC50 for HIV1 expressing wild type reverse transcriptase; assay type: functional
[21] = Oral bioavailability in Sprague-Dawley rat at 5 mg/kg; assay type: ADME, organism-based; settings: in vivo
[22] = Half life in cynomolgus monkey at 1 mg/kg, iv; assay type: ADME, organism-based, Macaca fascicularis; parameters: dose 1 mg/kg, route intravenous; settings: in vivo
[23] = tested on: Human immunodeficiency virus 1; experiment: Antiviral activity against NNRTI-resistant HIV1 harboring reverse transcriptase Y181V mutant infected in human MT4 cells assessed as inhibition of viral replication after 72 hrs by HeLa-CD4-LTR-beta-gal assay; assay type: functional, organism-based
[24] = Volume of distribution at steady state in dog at 1 mg/kg, iv; assay type: ADME, organism-based, Canis lupus familiaris; parameters: dose 1 mg/kg, route intravenous; settings: in vivo, read-out: Vdss
Canis familiaris = experiment: AUC (0 to infinity) in dog at 5 mg/kg, po; assay type: ADME, organism-based, Canis lupus familiaris, Plasma; parameters: time infinity, dose 5 mg/kg, route oral; settings: in vivo
Cynomolgus monkey = experiment: AUC (0 to infinity) in cynomolgus monkey at 5 mg/kg, po; assay type: ADME, organism-based, Macaca fascicularis, Plasma; parameters: time infinity, dose 5 mg/kg, route oral; settings: in vivo
[25] = tested on: Human immunodeficiency virus 1; experiment: Selectivity ratio of EC50 for NNRTI-resistant HIV1 harboring reverse transcriptase Y181I mutant to EC50 for HIV1 expressing wild type reverse transcriptase; assay type: functional
[26] = Oral bioavailability in cynomolgus monkey at 5 mg/kg; assay type: ADME, organism-based, Macaca fascicularis; settings: in vivo
[27] = Oral bioavailability in dog at 5 mg/kg; assay type: ADME, organism-based, Canis lupus familiaris; settings: in vivo
[28] = Oral bioavailability in mouse at 5 mg/kg; assay type: ADME, organism-based; settings: in vivo
[29] = Half life in Sprague-Dawley rat at 1 mg/kg, iv; assay type: ADME, organism-based; parameters: dose 1 mg/kg, route intravenous; settings: in vivo
[30] = Clearance in dog at 1 mg/kg, iv; assay type: ADME, organism-based, Canis lupus familiaris; parameters: dose 1 mg/kg, route intravenous; settings: in vivo
[31] = Volume of distribution at steady state in Sprague-Dawley rat at 1 mg/kg, iv; assay type: ADME, organism-based; parameters: dose 1 mg/kg, route intravenous; settings: in vivo, read-out: Vdss

Structure (SMILES): N#Cc1cc(Cl)cc(Oc2c(Cl)ccc(CNC(=O)c3ccc(S(N)(=O)=O)cc3Cl)c2F)c1
- EC50 [1]: 180 nM
- EC50 [2]: 13 nM
- EC50 [3]: 60 nM
- EC50 [4]: > 1000 nM

Structure (SMILES): N#Cc1cc(Cl)cc(Oc2c(Cl)ccc(CNC(=O)c3cnc[nH]3)c2F)c1
- EC50 [1]: 260 nM
- EC50 [2]: 9.7 nM
- EC50 [3]: 48 nM
- EC50 [4]: > 1000 nM

Structure (SMILES): N#Cc1cc(Cl)cc(Oc2c(Cl)ccc(CNC(=O)c3[nH]c(N)nc3Cl)c2F)c1
- EC50 [2]: 0.1 nM
- EC50 [4]: 0.9 nM

Structure (SMILES): CCCc1nc(Cl)c(C(=O)NCc2ccc(Cl)c(Oc3cc(Cl)cc(C#N)c3)c2F)[nH]1
- EC50 [1]: 1.3 nM
- EC50 [2]: 0.3 nM
- EC50 [3]: 0.4 nM
- EC50 [4]: 240 nM

Structure (SMILES): O=C1Nc2ccc(Cl)cc2[C@@](C#CC2CC2)(C(F)(F)F)O1 [EFAVIRENZ]
- EC50 [1]: 1 nM
- EC50 [3]: 20 nM
- EC50 [4]: 157 nM

Structure (SMILES): Cc1nc[nH]c1C(=O)NCc1ccc(Cl)c(Oc2cc(Cl)cc(C#N)c2)c1F
- EC50 [1]: 15 nM
- pKa [5]: > 12
- EC50 [2]: 2.4 nM
- EC50 [3]: 7.2 nM
- EC50 [4]: > 1000 nM

Structure (SMILES): N#Cc1cc(Cl)cc(Oc2c(Cl)ccc(CNC(=O)c3[nH]cnc3Cl)c2F)c1
- EC50 [1]: 0.2 nM
- pKa [5]: 8.9
- EC50 [2]: 0.1 nM
- EC50 [4]: 5.6 nM

Structure (SMILES): N#Cc1cc(Cl)cc(Oc2c(Cl)ccc(CNC(=O)c3[nH]cnc3C(F)(F)F)c2F)c1
- EC50 [1]: 1.4 nM
- EC50 [2]: 0.1 nM
- EC50 [3]: 0.7 nM
- EC50 [4]: 320 nM

Structure (SMILES): N#Cc1cc(Cl)cc(Oc2c(Cl)ccc(CNC(=O)c3[nH]cnc3Br)c2F)c1
- EC50 [1]: 0.2 nM
- EC50 [2]: 0.1 nM
- EC50 [4]: 7.1 nM

Structure (SMILES): Cc1cc(C#N)cc(C)c1Oc1nc(Nc2ccc(C#N)cc2)nc(N)c1Br [ETRAVIRINE]
- EC50 [1]: 2.4 nM
- Ratio EC50 [6]: 13
- inhibition [7]: inactive
- Ratio EC50 [8]: 83
- EC50 [2]: 0.6 nM
- EC50 [3]: 0.4 nM
- inhibition [9]: inactive
- inhibition [10]: inactive
- inhibition [11]: inactive
- EC50 [4]: 0.9 nM

Structure (SMILES): Cn1cncc1C(=O)NCc1ccc(Cl)c(Oc2cc(Cl)cc(C#N)c2)c1F
- EC50 [1]: > 1000 nM
- EC50 [2]: 120 nM
- EC50 [3]: 460 nM
- EC50 [4]: > 1000 nM

Structure (SMILES): N#Cc1cc(Cl)cc(Oc2c(Br)ccc(CNC(=O)c3[nH]c(N)nc3Cl)c2F)c1
- Ratio EC50 [6]: 71
- AUC (Rattus norvegicus): 2510 ng·h/mL
- half-life [12]: 4.3 h
- inhibition [7]: Active
- clearance [13]: 8.2 mL/min/kg
- Vd [14]: 1.8 L/kg
- clearance [15]: 28.6 mL/min/kg
- clearance [16]: 4.7 mL/min/kg
- Ratio EC50 [8]: <3
- Vd [17]: 2.1 L/kg
- inhibition [18]: Active
- half-life [19]: 3.1 h
- AUC (Mus musculus): 9600 ng·h/mL
- EC50 [2]: 0.1 nM
- Ratio EC50 [20]: 5
- bioavailability [21]: 84%
- half-life [22]: 6.1 h
- inhibition [23]: Active
- Vd [24]: 0.9 L/kg
- AUC (Canis familiaris): 14300 ng·h/mL
- AUC (Cynomolgus monkey): 6460 ng·h/mL
- Ratio EC50 [25]: <3
- EC50 ([9]; Human immunodeficiency virus 1, MT4, 72 h): 3.2 nM
- bioavailability [26]: 34%
- bioavailability [27]: 47%
- bioavailability [28]: 94%
- inhibition [10]: Active
- half-life [29]: 2.2 h
- inhibition [11]: Active
- clearance [30]: 2.8 mL/min/kg
- EC50 [4]: 0.5 nM
- Vd [31]: 3.6 L/kg

Structure (SMILES): Cc1cc(S(N)(=O)=O)ccc1NC(=O)COc1ccc(Cl)cc1C(=O)c1cc(Cl)cc(C#N)c1
- EC50 [1]: 0.5 nM
- EC50 [2]: 0.3 nM
- EC50 [3]: 0.5 nM
- EC50 [4]: 18 nM

Structure (SMILES): N#Cc1cc(Cl)cc(Oc2c(Cl)ccc(CNC(=O)c3[nH]c(CO)nc3Cl)c2F)c1
- EC50 [1]: 1.2 nM
- EC50 [2]: 0.3 nM
- EC50 [4]: 24 nM

Structure (SMILES): Cc1nc(Cl)c(C(=O)NCc2ccc(Cl)c(Oc3cc(Cl)cc(C#N)c3)c2F)[nH]1
- EC50 [1]: 0.3 nM
- EC50 [2]: 0.2 nM
- EC50 [4]: 11 nM

Structure (SMILES): N#Cc1cc(Cl)cc(Oc2c(Cl)ccc(CNC(=O)c3[nH]c(O)nc3Cl)c2F)c1
- EC50 [1]: 57 nM
- EC50 [2]: 5.3 nM
- EC50 [3]: 14 nM
- EC50 [4]: > 1000 nM

Structure (SMILES): N#Cc1cc(Cl)cc(Oc2c(Cl)ccc(CNC(=O)c3nc4ccccc4[nH]3)c2F)c1
- EC50 [1]: 27 nM
- EC50 [2]: 5.1 nM
- EC50 [3]: 18 nM
- EC50 [4]: > 1000 nM

Structure (SMILES): Cc1cc(/C=C/C#N)cc(C)c1Nc1ccnc(Nc2ccc(C#N)cc2)n1 [RILPIVIRINE]
- inhibition [7]: inactive
- inhibition [9]: inactive
- inhibition [10]: inactive
- inhibition [11]: inactive
- EC50 [4]: 3.7 nM

Structure (SMILES): N#Cc1cc(Cl)cc(Oc2c(Cl)ccc(CNC(=O)c3cc4ccccc4o3)c2F)c1
- EC50 [1]: 340 nM
- EC50 [2]: 52 nM
- EC50 [3]: 380 nM
- EC50 [4]: > 1000 nM

Structure (SMILES): CCc1nc(Cl)c(C(=O)NCc2ccc(Cl)c(Oc3cc(Cl)cc(C#N)c3)c2F)[nH]1
- EC50 [1]: 0.8 nM
- EC50 [2]: 0.3 nM
- EC50 [4]: 76 nM

Structure (SMILES): N#Cc1cc(Cl)cc(Oc2c(Cl)ccc(CNC(=O)c3cc4ccccc4[nH]3)c2F)c1
- EC50 [1]: 58 nM
- EC50 [2]: 8.9 nM
- EC50 [3]: 26 nM
- EC50 [4]: > 1000 nM
